Test systems include HOP-62; RXF 393; M14; SNB-19; SN12C; NCI/ADR-RES; UACC-62; LOX IMVI; SK-MEL-28; MDA-MB-231; Hs-578T; SF-539; NCI-H460; U-251; BT-549; HL-60; EKVX; MDA-N; SK-OV-3; CCRF-CEM.
Holding throughout (test): NCI anticancer screen, dose series, 48 h

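Where inhibition never reached the appropriate level, the endpoint shown equals the highest concentration tested. Otherwise, values were interpolated linearly from a five-concentration, 48-hour dose response in 96-well plates. Here, GI50 denotes the concentration required for 50% inhibition of growth.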 Active and inactive are the calls of the source. No stated cut-off is given here; in the data, active = GI50 up to about 1.1 µM and inactive = higher.

`Cc1cc(SCC(=O)c2ccccc2)nc2ccccc12`: the GI50 in the assay with HOP-62 is 88.9 µM (inactive); with RXF 393, > 100 µM (inactive); with M14 it was 92.3 µM (inactive); with SNB-19 it was > 100 µM (inactive); with SN12C it was > 100 µM (inactive); in the assay on NCI/ADR-RES, > 100 µM (inactive). Also, the GI50 with UACC-62 was > 100 µM (inactive); with LOX IMVI it was > 100 µM (inactive); in the assay with SK-MEL-28, > 100 µM (inactive); in the assay on MDA-MB-231, > 100 µM (inactive); in the assay on Hs-578T, < 0.01 µM (active); in the assay with SF-539 it was > 100 µM (inactive). For the same molecule, the GI50 in the assay with NCI-H460 is > 100 µM (inactive); in the assay with U-251, > 100 µM (inactive); with BT-549 it was > 100 µM (inactive); with HL-60, > 100 µM (inactive); with EKVX it was 8.11 µM (inactive).

In the case of `COC(CN(C=O)[C@@H](c1ccc(Cl)cc1)c1cc2ccccc2o1)OC`, the GI50 in the assay with HOP-62 was 22 µM (inactive); in the assay with MDA-N, 17.1 µM (inactive); in the assay with RXF 393 it was 14.6 µM (inactive); in the assay on SK-OV-3, 0.841 µM (active); with M14 it was 17.3 µM (inactive); in the assay on SNB-19 it was 19.4 µM (inactive). Besides, the GI50 in the assay with SN12C was 17.2 µM (inactive); in the assay on NCI/ADR-RES, 18.3 µM (inactive); with UACC-62, 14.8 µM (inactive); with LOX IMVI it was 16.3 µM (inactive); in the assay on SK-MEL-28, 18.5 µM (inactive); with MDA-MB-231 it was 18.5 µM (inactive). Also, the GI50 in the assay on Hs-578T was 14 µM (inactive); in the assay with CCRF-CEM, 21.1 µM (inactive); in the assay with SF-539 it was 17.9 µM (inactive); with NCI-H460, 15.5 µM (inactive); with U-251 it was 17.3 µM (inactive); with HL-60, 20.5 µM (inactive). In the assay with EKVX, the GI50 was 15.8 µM (inactive).

In the case of `Nc1ncnc2c1ncn2[C@@H]1C[C@H]1CO`, the GI50 in the assay with HOP-62, in the assay with MDA-N, in the assay on M14, with SNB-19, in the assay on SN12C and with NCI/ADR-RES was > 100 µM (inactive) in each case. Further, the GI50 in the assay on LOX IMVI, in the assay with MDA-MB-231, in the assay with Hs-578T, with CCRF-CEM, in the assay with SF-539 and with NCI-H460 was > 100 µM (inactive) throughout. In addition, the GI50 in the assay on U-251 is > 100 µM (inactive); with BT-549 it was > 10 µM (inactive); with HL-60, > 100 µM (inactive); in the assay on EKVX it was > 100 µM (inactive).

As for `COc1ccc(N2C(=O)CC(=O)N(C(=O)COc3ccc(OCC(=O)N4C(=O)CC(=O)N(c5ccc(OC)cc5)C4=S)cc3)C2=S)cc1`, the GI50 in the assay on MDA-N is 37.8 µM (inactive); in the assay with RXF 393, 23.7 µM (inactive); with SK-OV-3, 29.2 µM (inactive); in the assay with M14 it was 54.5 µM (inactive); with SNB-19 it was 40.3 µM (inactive); with SN12C, 43.3 µM (inactive). For the same molecule, the GI50 was 66.4 µM (inactive) with NCI/ADR-RES; 29.2 µM (inactive) in the assay with UACC-62; 48.1 µM (inactive) in the assay with SK-MEL-28; 30.3 µM (inactive) in the assay on MDA-MB-231; 25.7 µM (inactive) in the assay with NCI-H460; 37.1 µM (inactive) with U-251. Further, the GI50 was 50.1 µM (inactive) in the assay on BT-549 and 92.9 µM (inactive) in the assay with EKVX.

Consider `CCOP(C)(=O)C(Nc1ccc(F)cc1)c1ccc(F)cc1` (stereo unspecified), for which the GI50 in the assay with HOP-62, in the assay with MDA-N, in the assay on RXF 393, with SK-OV-3, in the assay on M14 and in the assay on SNB-19 was > 100 µM (inactive) each time. In addition, the GI50 in the assay on SN12C, in the assay with NCI/ADR-RES, with UACC-62, in the assay with LOX IMVI, in the assay on SK-MEL-28 and in the assay on MDA-MB-231 was > 100 µM (inactive) throughout. Further, the GI50 in the assay with Hs-578T, in the assay with CCRF-CEM, in the assay on SF-539, in the assay on NCI-H460, with U-251 and in the assay with HL-60 was > 100 µM (inactive) each time. Moreover, the GI50 in the assay with EKVX was > 100 µM (inactive).

Consider `CN1CCN(C(=S)N(C(=O)c2ccco2)C2CCCCC2)CC1`, for which the GI50 in the assay on MDA-N, with RXF 393, in the assay on M14, with SNB-19, with SN12C and in the assay with UACC-62 was > 100 µM (inactive) each time. The GI50 with LOX IMVI, in the assay with SK-MEL-28, in the assay on MDA-MB-231, in the assay on Hs-578T, in the assay on CCRF-CEM and in the assay with NCI-H460 was > 100 µM (inactive) throughout. Moreover, the GI50 in the assay on U-251 was > 100 µM (inactive); with BT-549, > 100 µM (inactive); in the assay on HL-60, > 10 µM (inactive).

On to `COC1O[C@H]2[C@H]3[C@@H]1[C@@H](OS(=O)(=O)c1ccc(C)cc1)C(=O)N3C[C@H]2O` (stereo partly specified), for which the GI50 in the assay with HOP-62 is > 100 µM (inactive); in the assay on RXF 393, 17.9 µM (inactive); in the assay on SK-OV-3, > 100 µM (inactive); with M14 it was > 100 µM (inactive); in the assay on SNB-19, > 100 µM (inactive); in the assay on NCI/ADR-RES, > 100 µM (inactive). Also, the GI50 in the assay on UACC-62, with LOX IMVI, in the assay with SK-MEL-28, in the assay with MDA-MB-231, with SF-539 and with NCI-H460 was > 100 µM (inactive) in each case. Also, the GI50 in the assay with U-251, in the assay on BT-549 and in the assay on EKVX was > 100 µM (inactive) each time.

Take `CCOC(=O)C1CCCc2sc(N)c(C#N)c21` (stereo unspecified): the GI50 with HOP-62, with MDA-N, in the assay on RXF 393, in the assay with M14, in the assay on SNB-19 and in the assay on SN12C was > 100 µM (inactive) throughout. The GI50 in the assay on UACC-62, in the assay on SK-MEL-28, with MDA-MB-231, in the assay with Hs-578T, in the assay with NCI-H460 and with U-251 was > 100 µM (inactive) throughout. For the same molecule, the GI50 is 55.5 µM (inactive) in the assay with BT-549, > 100 µM (inactive) with HL-60 and 57.3 µM (inactive) in the assay on EKVX.

`CCN(CCN(CC)C(=O)Nc1ccccc1)C(=O)Nc1ccccc1`: the GI50 in the assay with HOP-62, in the assay on RXF 393, in the assay with SK-OV-3, with M14, in the assay with SNB-19 and in the assay with SN12C was > 100 µM (inactive) each time. In addition, the GI50 in the assay with NCI/ADR-RES, with UACC-62, in the assay with LOX IMVI, in the assay on SK-MEL-28, in the assay on MDA-MB-231 and with Hs-578T was > 100 µM (inactive) each time. Besides, the GI50 in the assay on CCRF-CEM, in the assay with NCI-H460, with U-251, in the assay on BT-549, with HL-60 and in the assay with EKVX was > 100 µM (inactive) throughout.

As for `c1ccc2cc3c(cc2c1)nc1ccccn13`, the GI50 was > 100 µM (inactive) in the assay with HOP-62; > 100 µM (inactive) in the assay with MDA-N; > 100 µM (inactive) with RXF 393; 77.3 µM (inactive) in the assay with SK-OV-3; > 100 µM (inactive) in the assay with M14; > 100 µM (inactive) with SNB-19. The GI50 is > 100 µM (inactive) in the assay with SN12C; > 100 µM (inactive) in the assay with NCI/ADR-RES; > 100 µM (inactive) with UACC-62; > 100 µM (inactive) with SK-MEL-28; 21 µM (inactive) in the assay on Hs-578T; > 100 µM (inactive) in the assay on CCRF-CEM. Besides, the GI50 in the assay with SF-539, with U-251, in the assay on BT-549, in the assay with HL-60 and in the assay on EKVX was > 100 µM (inactive) in each case.

For `CCc1nnc(CC)n1N1C(=O)CCC1=O`, the GI50 with HOP-62, with MDA-N, in the assay on RXF 393, with SK-OV-3, in the assay with M14 and with SNB-19 was > 100 µM (inactive) each time. Also, the GI50 in the assay with SN12C, in the assay with NCI/ADR-RES, with UACC-62, with LOX IMVI, in the assay with SK-MEL-28 and in the assay with MDA-MB-231 was > 100 µM (inactive) throughout. The GI50 in the assay with CCRF-CEM, in the assay with SF-539, in the assay on U-251, with BT-549 and in the assay on EKVX was > 100 µM (inactive) each time.

Turning to `COC(=O)[C@]1(c2cc3ccccc3[nH]2)CC2CN(CC(=O)N(C)OC)C1CC2(OC)OC` (stereo partly specified), the GI50 is 69.3 µM (inactive) with HOP-62; 33.4 µM (inactive) in the assay with MDA-N; 33.5 µM (inactive) with RXF 393; > 100 µM (inactive) in the assay with SK-OV-3; 35.9 µM (inactive) in the assay on M14; > 100 µM (inactive) with SNB-19. Besides, the GI50 was 41.2 µM (inactive) in the assay with SN12C; 41.2 µM (inactive) in the assay with NCI/ADR-RES; 67.8 µM (inactive) in the assay on UACC-62; 37.7 µM (inactive) with LOX IMVI; > 100 µM (inactive) in the assay on SK-MEL-28; 31.9 µM (inactive) in the assay on MDA-MB-231. For the same molecule, the GI50 was 7.23 µM (inactive) in the assay on CCRF-CEM; 44.4 µM (inactive) in the assay with SF-539; 55.3 µM (inactive) with NCI-H460; 16.1 µM (inactive) with U-251; 23.3 µM (inactive) with BT-549; 19.4 µM (inactive) with HL-60. Further, in the assay with EKVX, the GI50 is 56.6 µM (inactive).
